Source: article PMC4791210 (International immunopharmacology, 2015)

Columns and labels:
human neutrophils [1] = conditions: result in words; cited from earlier work
[2] = system: fMLF-stimulated neutrophils; conditions: list of responses inhibited; ref per compound in References column of Table 1; cited from earlier work
human neutrophils [3] = conditions: result in words; no data shown; cited from earlier work
FPR1 [4] = molecular target: T1, FPR1 (Homo sapiens, UniProt P21462); conditions: result in words; no data shown; cited from earlier work
T1 sequence (P21462 1-350): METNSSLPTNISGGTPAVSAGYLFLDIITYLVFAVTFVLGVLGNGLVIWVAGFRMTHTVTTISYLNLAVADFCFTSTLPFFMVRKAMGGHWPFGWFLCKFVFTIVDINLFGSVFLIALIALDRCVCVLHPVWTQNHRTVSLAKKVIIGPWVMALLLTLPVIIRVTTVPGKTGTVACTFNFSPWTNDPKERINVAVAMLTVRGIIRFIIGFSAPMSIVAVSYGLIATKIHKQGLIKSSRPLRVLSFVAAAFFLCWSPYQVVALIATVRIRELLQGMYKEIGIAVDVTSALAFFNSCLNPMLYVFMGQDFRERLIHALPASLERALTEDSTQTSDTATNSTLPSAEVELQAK

FPR1 [5] = molecular target: T1, FPR1; conditions: result in words; cited from earlier work
FPR1 [6] = molecular target: T1, FPR1; conditions: cited from earlier work
human neutrophils [7] = experiment: Direct activation of Ca2+ flux in human neutrophils; assay type: cell-based; conditions: Neutrophil, read-out: Human Neutrophils Activation (EC50, μM)
FPR1 [8] = molecular target: T1, FPR1; experiment: Direct activation of Ca2+ flux in FPR1 transfected HL-60 cells; assay type: cell-based
FPR1 [9] = conditions: high concentrations; cited from earlier work
FPR1 [10] = conditions: read-out: IC50, blocking of fMLF binding to FPR1; cited from earlier work
FPR1 [11] = molecular target: T1, FPR1; conditions: human neutrophils; cited from earlier work

Row | Compound | fMLF-induced Responses Inhibited in Neutrophils [2] | other results
1 | O=c1c(-c2ccccc2)coc2cc(O)ccc12 [7-hydroxyisoflavone] | – | Inhibition of fMLF-induced Ca2+ mobilization in human neutrophils (human neutrophils [1]): none
2 | COc1ccc(CCN(C)C(=O)/C=C/c2ccc(O)cc2)cc1 [Ailanthamide] | O2^−· production, HNE release | –
3 | COc1cc2oc(=O)ccc2c2c1C=CC(C)(C)O2 [Alloxanthoxyletin] | O2^−· production, HNE release | –
4 | CC(=O)OCC(Cc1ccccc1)NC(=O)C(Cc1ccccc1)NC(=O)c1ccccc1 (stereo not drawn) [Aurantiamide acetate, aurantiamide acetate] | O2^−· production | –
5 | COc1c2ccoc2cc2oc(=O)ccc12 [Bergapten] | O2^−· production, HNE release | –
6 | COc1ccc(-c2coc3cc(O)cc(O)c3c2=O)cc1 [Biochanin A] | – | Direct agonist activity in primary neutrophils (human neutrophils [3]): direct agonist activity; Inhibition of fMLF-induced Ca2+ mobilization in human neutrophils (human neutrophils [1]): inhibited; Direct agonist activity in FPR1-HL60 cells (FPR1 [4]): direct agonist activity; Inhibition of fMLF-induced Ca2+ flux in FPR1-HL60 cells (FPR1 [5]): inhibited; Inhibition of binding of labeled ligand (WKYMVm-FITC) to FPR1-HL60 cells (FPR1 [6]): did not inhibit binding
7 | C/C(=C/Cc1c(O)cc2oc(C)cc(=O)c2c1O)CO [Cnidimol A] | O2^−· production, HNE release | –
8 | COc1c(O)ccc2c1cnc1c3cc4c(cc3ccc21)OCO4 [Decarine] | O2^−· production, HNE release | –
9 | C=C(C)C(O)Cc1c(O)ccc2ccc(=O)oc12 (stereo not drawn) [Demethylauraptenol] | O2^−· production, HNE release | –
10 | C[C@H](CCC(=O)O)[C@H]1CC[C@H]2[C@@H]3CC[C@@H]4C[C@H](O)CC[C@]4(C)[C@H]3C[C@H](O)[C@]12C [Deoxycholic acid (DCA), Deoxycholic acid] | – | EC50 (human neutrophils [7]): 49 ± 5.4 µM; EC50 (FPR1 [8]): 40.9 ± 5.5 µM; Concentrations that antagonize FPR1 and inhibit 3H-fMLF binding (FPR1 [9]): ≥ 100 µM
11 | C=C(C)[C@@H]1CC[C@]2(C(=O)O)CC[C@]3(C)[C@H](CC[C@@H]4[C@@]5(C)CC[C@@H](O)C(C)(C)[C@@H]5CC[C@]43C)[C@@H]12 [Epibetulinic acid] | O2^−· production | –
12 | Cc1cc2ccc3c(c2cc1O)CCC(=O)C3(C)C [Flueggrene A] | O2^−· production, HNE release | –
13 | C=C(C)[C@@H](CC=C(C)C)C[C@@]12C[C@@H](CC=C(C)C)C(C)(C)[C@]3(C=CC(C)(C)OC3=C(C(=O)c3ccccc3)C1=O)C2=O [Garcimultiflorone B] | O2^−· production, HNE release | –
14 | COC(=O)C(C)CCC[C@]1(C)CC[C@]2(O1)C(=O)C(C)=C(C)[C@@]2(O)C(C)=O (stereo partly drawn) [Hirsutocospiro A] | O2^−· production, HNE release | –
15 | CC(C)=CCOc1c2occc2cc2ccc(=O)oc12 [Imperatorin] | O2^−· production | EC50 (human neutrophils [7]): 31.1 ± 3.6 µM; EC50 (FPR1 [8]): 50.9 ± 4.7 µM
16 | C=C1[C@H]2[C@@H]([C@@H](C(C)C)C[C@@H]1O)[C@H]1O[C@@H]2C[C@](C)(O)[C@@H](OC(=O)Cc2ccccc2)CC[C@@]1(C)OC(=O)CCC [Klymollin M] | O2^−· production, HNE release | –
17 | COc1ccc(C[C@H]2COC(=O)[C@@H]2Cc2ccc(O)c(O)c2)cc1OC [Lignan PP-6, (2R, 3R)-2-(3′,4′-dihydroxybenzyl)-3-(3″,4″-dimethoxybenzyl)butyrolactone] | – | IC50 (FPR1 [10]): ~1.5 µM
18 | COc1cc(O)c2c(=O)c(OC)c(-c3ccc(O)c(OC)c3)oc2c1 [MSF-2, 5-hydroxy-2-(4-hydroxy-3-methoxyphenyl)-3,7-dimethoxy-4H-chromen-4-one] | – | Interference with fMLF binding (FPR1 [11]): did not interfere
19 | CC1(C)CC[C@]2(C(=O)O)CC[C@]3(C)C(=CC[C@@H]4[C@@]5(C)CC[C@H](O)C(C)(C)[C@@H]5CC[C@]43C)[C@@H]2C1 [Oleanolic acid] | O2^−· production, HNE release | –
20 | CC(C)=CCc1c(O)ccc2ccc(=O)oc12 [Osthenol] | O2^−· production, HNE release | –
21 | COC1=CC(=O)c2cc(-c3ccc(OC)c(O)c3)c3cc(O)c(OC)cc3c2C1=O [Pterolinus K] | O2^−· production, HNE release | –
22 | C=CCc1ccc(O)c(-c2cc(O)ccc2O)c1 [Randaiol] | O2^−· production and HNE release | –
